Patent publication US6737383B1, “Herbicidal oxadiazolidines” (priority 1999, dated 2004)

Tests used:
velvetleaf = test: Test B pre/postemergence velvetleaf; assay type: in vivo, Abutilon theophrasti
How it was run: (§1)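 Test chemicals in a non-phytotoxic solvent mixture with surfactant were sprayed preemergence onto planted seeds and postemergence onto plants 2 to 18 cm tall (1- to 4-leaf stage). After twelve to sixteen days in a greenhouse, injury was visually rated against untreated controls from 0 (no effect) to 10 (complete control).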

blackgrass = test: Test B pre/postemergence blackgrass; assay type: in vivo, Alopecurus myosuroides
How it was run: as §1

giant foxtail = test: Test B pre/postemergence giant foxtail; assay type: in vivo, Setaria faberii
How it was run: as §1

purple nutsedge = test: Test B pre/postemergence purple nutsedge; assay type: in vivo, Cyperus rotundus
How it was run: as §1

soybean = test: Test B pre/postemergence soybean; assay type: in vivo, Glycine max
From the text: (§2) Seeds of bedstraw (Galium aparine), blackgrass (Alopecurus myosuroides), surinam grass (Brachiaria decumbens), cocklebur (Xanthium strumarium), corn (Zea mays), crabgrass (Digitaria sanguinalis), giant foxtail (Setaria faberii), morningglory (Ipomoea hederacea), pigweed (Amaranthus retroflexus), rape (Brassica napus), soybean (Glycine max), sugar beet (Beta vulgaris), velvetleaf (Abutilon theophrasti), wheat (Triticum aestivum), wild oat (Avena fatua) and purple nutsedge (Cyperus rotundus) tubers were planted and treated preemnergence with test chemicals formulated in a non-phytotoxic solvent mixture which included a surfactant.
(§3) At the same time, these crop and weed species were also treated with postemergence applications of test chemicals formulated in the same manner. Plants ranged in height from 2 to 18 cm (1- to 4-leaf stage) for postemergence treatments. Plant species in the flood test consisted of rice (Oryza sativa), smallflower flatsedge (Cyperus difformis), duck salad (Heteranthera limosa) and bamyardgrass (Echinochloa crus-galli) grown to the 2-leaf stage for testing. Treated plants and controls were maintained in a greenhouse for twelve to sixteen days, after which all species were compared to controls and visually evaluated. Plant response ratings, summarized in Table B, are based on a scale of 0 to 10 where 0 is no effect and 10 is complete control. A dash (−) response means no test result.

rape = test: Test B pre/postemergence rape; assay type: in vivo, Brassica napus
From the text: as §2, §3

surinam grass = test: Test B pre/postemergence surinam grass; assay type: in vivo, Brachiaria decumbens
From the text: as §2, §3

morningglory = test: Test B pre/postemergence morningglory; assay type: in vivo, Ipomoea hederacea
From the text: as §2, §3

wild oat = test: Test B pre/postemergence wild oat; assay type: in vivo, Avena fatua
How it was run: as §1

bedstraw = test: Test B pre/postemergence bedstraw; assay type: in vivo, Galium aparine
How it was run: as §1

crabgrass = test: Test B pre/postemergence crabgrass; assay type: in vivo, Digitaria sanguinalis
From the text: as §2, §3

sugar beet = test: Test B pre/postemergence sugar beet; assay type: in vivo, Beta vulgaris
How it was run: as §1

corn = test: Test B pre/postemergence corn; assay type: in vivo, Zea mays
From the text: as §2, §3

pigweed = test: Test B pre/postemergence pigweed; assay type: in vivo, Amaranthus retroflexus
From the text: as §2, §3

wheat = test: Test B pre/postemergence wheat; assay type: in vivo, Triticum aestivum
From the text: as §2, §3

cocklebur = test: Test B pre/postemergence cocklebur; assay type: in vivo, Xanthium strumarium
How it was run: as §1

[1] = Postemergence, Rate 125 g/ha, scale of 0 to 10 where 0 is no effect and 10 is complete control
[2] = Preemergence, Rate 62 g/ha, scale 0 to 10 (0 no effect, 10 complete control)
[3] = Preemergence, Rate 125 g/ha, 0 is no effect, 10 is complete control
[4] = Preemergence, Rate 250 g/ha, scale 0 to 10, 0 is no effect, 10 is complete control
[5] = Preemergence, Rate 500 g/ha, scale 0 to 10 (0 no effect, 10 complete control)
[6] = Rate 62 g/ha, Postemergence, scale of 0 to 10 where 0 is no effect and 10 is complete control
[7] = Rate 250 g/ha, Postemergence, scale 0 to 10, 0 is no effect, 10 is complete control
[8] = Rate 500 g/ha, Postemergence, scale 0 to 10

CC(C)N(C(=O)n1oc(=O)n(C(C)c2ccccc2)c1=O)c1ccc(F)cc1 (stereo not shown) [Compound 134]
Velvetleaf plant response rating (velvetleaf; [1]): 0 | Velvetleaf plant response rating (velvetleaf; [2]): 0 | Velvetleaf plant response rating (0 to 10 scale) (velvetleaf; [3]): 0 | Velvetleaf plant response rating (velvetleaf; [4]): 2 | Velvetleaf plant response rating (velvetleaf; [5]): 7 | Velvetleaf plant response rating (velvetleaf; [6]): 0 | Plant response rating, Velvetleaf (velvetleaf; [7]): 0 | Velvetleaf plant response rating (velvetleaf; [8]): 4 | Blackgrass plant response rating (blackgrass; [1]): 0 | Blackgrass plant response rating (blackgrass; [2]): 0 | Blackgrass plant response rating (0 to 10 scale) (blackgrass; [3]): 0 | Blackgrass plant response rating (blackgrass; [4]): 2 | Blackgrass plant response rating (blackgrass; [5]): 2 | Blackgrass plant response rating (blackgrass; [6]): 0 | Plant response rating, Blackgrass (blackgrass; [7]): 0 | Blackgrass plant response rating (blackgrass; [8]): 7 | Giant foxtail plant response rating (giant foxtail; [1]): 0 | Giant foxtail plant response rating (giant foxtail; [2]): 6 | Giant foxtail plant response rating (0 to 10 scale) (giant foxtail; [3]): 9 | Giant foxtail plant response rating (giant foxtail; [4]): 10 | Giant foxtail plant response rating (giant foxtail; [5]): 10 | Giant foxtail plant response rating (giant foxtail; [6]): 0 | Plant response rating, Giant foxtail (giant foxtail; [7]): 0 | Giant foxtail plant response rating (giant foxtail; [8]): 3 | Nutsedge plant response rating (purple nutsedge; [1]): 0 | Nutsedge plant response rating (purple nutsedge; [2]): 0 | Nutsedge plant response rating (0 to 10 scale) (purple nutsedge; [3]): 0 | Nutsedge plant response rating (purple nutsedge; [4]): 0 | Nutsedge plant response rating (purple nutsedge; [5]): 0 | Nutsedge plant response rating (purple nutsedge; [6]): 0 | Plant response rating, Nutsedge (purple nutsedge; [7]): 0 | Nutsedge plant response rating (purple nutsedge; [8]): 0 | Soybean plant response rating (soybean; [1]): 1 | Soybean plant response rating (soybean; [2]): 0 | Soybean plant response rating (0 to 10 scale) (soybean; [3]): 0 | Soybean plant response rating (soybean; [4]): 0 | Soybean plant response rating (soybean; [5]): 0 | Soybean plant response rating (soybean; [6]): 1 | Plant response rating, Soybean (soybean; [7]): 1 | Soybean plant response rating (soybean; [8]): 1 | Rape plant response rating (rape; [1]): 0 | Rape plant response rating (rape; [2]): 0 | Rape plant response rating (0 to 10 scale) (rape; [3]): 0 | Rape plant response rating (rape; [4]): 0 | Rape plant response rating (rape; [5]): 6 | Rape plant response rating (rape; [6]): 0 | Plant response rating, Rape (rape; [7]): 0 | Rape plant response rating (rape; [8]): 0 | B. signalgrass plant response rating (surinam grass; [1]): 0 | B. signalgrass plant response rating (surinam grass; [2]): 0 | B. signalgrass plant response rating (0 to 10 scale) (surinam grass; [3]): 2 | B. signalgrass plant response rating (surinam grass; [4]): 6 | B. signalgrass plant response rating (surinam grass; [5]): 8 | B. signalgrass plant response rating (surinam grass; [6]): 0 | Plant response rating, B. signalgrass (surinam grass; [7]): 0 | B. signalgrass plant response rating (surinam grass; Rate 500 g/ha, Postemergence, scale of 0 to 10 where 0 is no effect and 10 is complete control): 2 | Morningglory plant response rating (morningglory; [1]): 6 | Morningglory plant response rating (morningglory; [2]): 0 | Morningglory plant response rating (0 to 10 scale) (morningglory; [3]): 0 | Morningglory plant response rating (morningglory; [4]): 0 | Morningglory plant response rating (morningglory; [5]): 1 | Morningglory plant response rating (morningglory; [6]): 5 | Plant response rating, Morningglory (morningglory; [7]): 8 | Morningglory plant response rating (morningglory; [8]): 8 | Wild oats plant response rating (wild oat; [1]): 0 | Wild oats plant response rating (wild oat; [2]): 0 | Wild oats plant response rating (0 to 10 scale) (wild oat; [3]): 0 | Wild oats plant response rating (wild oat; [4]): 2 | Wild oats plant response rating (wild oat; [5]): 2 | Wild oats plant response rating (wild oat; [6]): 0 | Plant response rating, Wild oats (wild oat; [7]): 0 | Wild oats plant response rating (wild oat; [8]): 0 | Bedstraw plant response rating (bedstraw; [1]): 4 | Bedstraw plant response rating (bedstraw; [2]): 0 | Bedstraw plant response rating (0 to 10 scale) (bedstraw; [3]): 0 | Bedstraw plant response rating (bedstraw; [4]): 0 | Bedstraw plant response rating (bedstraw; [5]): 3 | Bedstraw plant response rating (bedstraw; [6]): 4 | Plant response rating, Bedstraw (bedstraw; [7]): 4 | Crabgrass plant response rating (crabgrass; [1]): 0 | Crabgrass plant response rating (crabgrass; [2]): 2 | Crabgrass plant response rating (0 to 10 scale) (crabgrass; [3]): 6 | Crabgrass plant response rating (crabgrass; [4]): 9 | Crabgrass plant response rating (crabgrass; [5]): 9 | Crabgrass plant response rating (crabgrass; [6]): 0 | Plant response rating, Crabgrass (crabgrass; [7]): 4 | Crabgrass plant response rating (crabgrass; [8]): 9 | Sugarbeets plant response rating (sugar beet; [1]): 0 | Sugarbeets plant response rating (sugar beet; [2]): 0 | Sugarbeets plant response rating (0 to 10 scale) (sugar beet; [3]): 2 | Sugarbeets plant response rating (sugar beet; [4]): 4 | Sugarbeets plant response rating (sugar beet; [5]): 7 | Sugarbeets plant response rating (sugar beet; [6]): 0 | Plant response rating, Sugarbeets (sugar beet; [7]): 0 | Sugarbeets plant response rating (sugar beet; [8]): 2 | Corn plant response rating (corn; [1]): 0 | Corn plant response rating (corn; [2]): 0 | Corn plant response rating (0 to 10 scale) (corn; [3]): 0 | Corn plant response rating (corn; [4]): 0 | Corn plant response rating (corn; [5]): 0 | Corn plant response rating (corn; [6]): 0 | Plant response rating, Corn (corn; [7]): 0 | Corn plant response rating (corn; [8]): 0 | Redroot pigweed plant response rating (pigweed; [1]): 0 | Redroot pigweed plant response rating (pigweed; [2]): 0 | Redroot pigweed plant response rating (0 to 10 scale) (pigweed; [3]): 0 | Redroot pigweed plant response rating (pigweed; [4]): 0 | Redroot pigweed plant response rating (pigweed; [5]): 2 | Redroot pigweed plant response rating (pigweed; [6]): 0 | Plant response rating, Redroot pigweed (pigweed; [7]): 0 | Redroot pigweed plant response rating (pigweed; [8]): 0 | Wheat plant response rating (wheat; [1]): 0 | Wheat plant response rating (wheat; [2]): 0 | Wheat plant response rating (0 to 10 scale) (wheat; [3]): 0 | Wheat plant response rating (wheat; [4]): 0 | Wheat plant response rating (wheat; [5]): 0 | Wheat plant response rating (wheat; [6]): 0 | Plant response rating, Wheat (wheat; [7]): 0 | Wheat plant response rating (wheat; [8]): 0 | Cocklebur plant response rating (cocklebur; [1]): 0 | Cocklebur plant response rating (cocklebur; [2]): 0 | Cocklebur plant response rating (0 to 10 scale) (cocklebur; [3]): 0 | Cocklebur plant response rating (cocklebur; [4]): 0 | Cocklebur plant response rating (cocklebur; [5]): 0 | Cocklebur plant response rating (cocklebur; [6]): 0 | Plant response rating, Cocklebur (cocklebur; [7]): 0 | Cocklebur plant response rating (cocklebur; [8]): 1
